pEC50: −log10 of the molar value. In brackets after ≈: the same amount, converted by molar mass. Read-outs that look alike come from different tables or passages of the source.
How the values were obtained:
[1] = test system: breast tumor cell line MDA-MB-435; assay: Bioassay for DNA synthesis arrest, naturally occurring vitamin E compounds; assay type: cell-based, human; conditions: Table 1
Experimental: Table 1 provides tumor growth inhibitory properties of naturally occurring vitamin E compounds against the breast tumor cell line MDA-MB-435.
To assay DNA synthesis, all cells were used at 2.5×10^5/ml. Cells were treated with each of the compounds at concentrations of 0.01, 0.1, 1, 5, 10 and 20 μg/mL and 200 μl of each treatment group were plated in quadruplicate in a 96 well culture plate (Corning, Corning N.Y.). Experiments were done in duplicate, one plate used for viability testing and the other plate for examination of ^3H-TdR uptake to monitor DNA synthesis. Plates were cultured for 48 hours at 37° C., 5% CO2. Eight hours prior to the end of incubation, ^3H-TdR was added to one of the duplicate plates and incubation continued for 8 hours.
The cells were then harvested (trypsinization was required to harvest adherent cells), and isotope uptake was determined as counts per minute (cpm). For viability studies, at the end of the incubation, the cells were removed from the wells and viability checked by the Trypan Blue Exclusion method. Percent viability and percent DNA synthesis in comparison to untreated or vehicle treated cells of each treatment group were calculated.

MDA-MB-435 cells [2] = assay: DNA synthesis arrest by 3H-uptake (Example 8); assay type: cell-based, human; conditions: MDA-MB-435; 2% serum; 3H-uptake at one day treatment
Experimental: (§1) MDA-MB-435 and MCF-7 cells at 1.5×10^5/well in 12 well plates for apoptosis and 1.5×10^4/well in 96 well plates for DNA synthesis arrest were incubated overnight in culture media and treated with α-tocopherol, α-tocotrinel, compound 1, 6-0-carboxymethyl alpha-tocotrienol (6-0-CM-α-T, 44), and vitamin E succinate (VES) at different concentrations in experimental media (2% serum for MDA-MB-435 cells and 5% serum for MCF-7 cells). DNA synthesis arrest was determined by ^3H-uptake at one day treatment and apoptosis was detected by DAPI staining at three day treatment. EC50 was calculated as the dosage of test compounds that gave 50% growth inhibition.

MCF-7 cells [3] = assay: DNA synthesis arrest by 3H-uptake (Example 8); assay type: cell-based, human; conditions: 5% serum, 3H-uptake at one day treatment
Experimental: as §1

MDA-MB-435 = assay: Bioassay for apoptosis (apoptotic EC50); assay type: cell-based, human; conditions: for pEC50: MDA-MB-435, Table 1, read-out: EC50 for Apoptosis; for EC50: Homo sapiens, MDA-MB-435, MDA-MB-435, unit inferred, read-out: apoptotic EC50
Experimental: (§2) Cells were cultured at 1.5×10^5 cells/well in 12 well plates. Cells were allowed to adhere overnight, then incubated with novel test compounds at 0.01, 0.1, 1, 5, 10 & 20 μg/mL for 1, 2 and 3 days. After treatment, cells (floating+trypsin released adherent cells) were pelleted, washed and stained with 2 μg/ml DAPI (4′,6-diamidine-2′-phenylindole dihydrochloride) in 100% methanol for 15 minutes at 37° C. and/or 3′-OH ends resulting from DNA fragmentation were detected with the TUNEL (terminal deoxynucleotidyl transferase-mediated dUTP-X 3′ nick end-labeling) technique, and then viewed using a Zeiss ICM 405 microscope. Cells whose nucleus contained clearly condensed or fragmented chromatin or stained for fragmented DNA in the TUNEL assay were scored as apoptotic. Data are presented as percent cells undergoing apoptosis.

MDA-MB-435 cells [4] = assay: Apoptosis by DAPI staining (Example 8); assay type: cell-based, human; conditions: MDA-MB-435; 2% serum; DAPI staining at three day treatment
Experimental: as §1

MCF-7 cells [5] = assay: Apoptosis by DAPI staining (Example 8); assay type: cell-based, human; conditions: 5% serum, DAPI staining at three day treatment
Experimental: as §1

DLD-1 = assay: Bioassay for apoptosis (apoptotic EC50); assay type: cell-based, human; conditions: Homo sapiens, unit inferred
Experimental: as §2

MCF-7 = assay: Bioassay for apoptosis (apoptotic EC50); assay type: cell-based, human; conditions: Homo sapiens, MCF7, MCF-7; unit inferred
Experimental: as §2

PC-3 = assay: Bioassay for apoptosis (apoptotic EC50); assay type: cell-based, human; conditions: Homo sapiens, PC-3, PC-3; unit inferred
Experimental: as §2

DU-145 = assay: Bioassay for apoptosis (apoptotic EC50); assay type: cell-based, human; conditions: Homo sapiens, unit inferred
Experimental: as §2

LnCaP = assay: Bioassay for apoptosis (apoptotic EC50); assay type: cell-based, human; conditions: Homo sapiens, unit inferred
Experimental: as §2

HT-29 = assay: Bioassay for apoptosis (apoptotic EC50); assay type: cell-based, human; conditions: Homo sapiens, unit inferred
Experimental: as §2

A-549 = assay: Bioassay for apoptosis (apoptotic EC50); assay type: cell-based, human; conditions: Homo sapiens, A549, unit inferred
Experimental: as §2

HL-60 = assay: Bioassay for apoptosis (apoptotic EC50); assay type: cell-based, human; conditions: Homo sapiens, HL-60, HL-60; unit inferred
Experimental: as §2

ME-180 = assay: Bioassay for apoptosis (apoptotic EC50); assay type: cell-based, human; conditions: Homo sapiens, ME-180, ME-180; unit inferred
Experimental: as §2

Jurkat = assay: Bioassay for apoptosis (apoptotic EC50); assay type: cell-based, human; conditions: Homo sapiens, unit inferred
Experimental: as §2

C-170 = assay: Bioassay for apoptosis (apoptotic EC50); assay type: cell-based, human; conditions: Homo sapiens, C170, C-170; unit inferred
Experimental: as §2

[6] = test system: human cancer cells from a wide variety of cell lineages; assay: Apoptosis induction in a battery of tumor cells; assay type: cell-based; conditions: breast, prostate, leukemia/lymphoid, cervical, ovarian, endometrial, colon, lung cell lines
Experimental: as §2

T47D = assay: Bioassay for apoptosis (apoptotic EC50); assay type: cell-based; conditions: Homo sapiens, unit inferred
Experimental: as §2

MCF-10A = assay: Bioassay for apoptosis (apoptotic EC50); assay type: cell-based; conditions: Homo sapiens, unit inferred
Experimental: as §2

RL-95-2 = assay: Bioassay for apoptosis (apoptotic EC50); assay type: cell-based, human; conditions: Homo sapiens, RL95-2, RL-95-2; unit inferred
Experimental: as §2

MDA-MB-231 = assay: Bioassay for apoptosis (apoptotic EC50); assay type: cell-based, human; conditions: Homo sapiens, MDA-MB-231, MDA-MB-231; unit inferred
Experimental: as §2

HMEC = assay: Bioassay for apoptosis (apoptotic EC50); assay type: cell-based; conditions: Homo sapiens, unit inferred
Experimental: as §2

Row | pEC50 [1] | pEC50 (MDA-MB-435) | EC50 (MCF-7) [µg/mL] | EC50 (PC-3) [µg/mL] | EC50 (MDA-MB-435) [µg/mL] | EC50 (LnCaP) [µg/mL] | EC50 (HL-60) [µg/mL] | EC50 (C-170) [µg/mL] | EC50 (T47D) [µg/mL] | Structure (SMILES) | growth inhibitory (apoptotic inducing) properties specific for human cancer cells [6] | EC50 (MCF-10A) [µg/mL] | also measured
1 | < 3.40 | < 3.40 |  |  |  |  |  |  |  | Cc1c(C)c2c(c(C)c1O)CC[C@@](C)(CCC[C@H](C)CCC[C@H](C)CCCC(C)C)O2 [α-tocopherol, RRR-α-tocopherol, reference compound] |  |  | pEC50 (MDA-MB-435 cells [2]): < 4.00; pEC50 (MCF-7 cells [3]): < 4.00; pEC50 (MDA-MB-435 cells [4]): < 4.00; pEC50 (MCF-7 cells [5]): < 4.00
2 |  |  | > 20 | > 20 | > 20 | > 20 |  |  |  | CCCCCCCCCCCCC[C@]1(C)CCc2c(C)c(OCC(=O)O)c(C)c(C)c2O1 [Compound 24, 2,5,7,8-tetramethyl-(2R-(tridecyl)chroman-6-yloxy)acetic acid] |  |  | EC50 (DLD-1): > 20 µg/mL; EC50 (DU-145): > 20 µg/mL
3 |  |  | 10 to 20 (≈ 20.5 to 40.9 µM) |  |  | 10 to 20 (≈ 20.5 to 40.9 µM) | 10 to 20 (≈ 20.5 to 40.9 µM) | 20 to 30 (≈ 40.9 to 61.4 µM) | 10 to 20 (≈ 20.5 to 40.9 µM) | Cc1c(C)c2c(c(C)c1OCC(=O)O)CC[C@@](C)(CCCC(C)CCCC(C)CCCC(C)C)O2 (stereo partly shown) [Compound 17] | effective | > 20 | EC50 (HT-29): > 20 µg/mL; EC50 (A-549): > 20 µg/mL; EC50 (ME-180): 20 to 30 µg/mL (≈ 40.9 to 61.4 µM); EC50 (Jurkat): 10 to 20 µg/mL (≈ 20.5 to 40.9 µM)
4 |  |  | > 20 | > 20 | 20 to 40 | 10 to 20 (≈ 24.2 to 48.5 µM) | > 20 | 20 to 30 (≈ 48.5 to 72.7 µM) | > 20 | CC(C)=CCC/C(C)=C\C=C/[C@]1(C)CCc2c(C)c(OCC(=O)O)c(C)c(C)c2O1 [Compound 26] | effective | > 20 | EC50 (DLD-1): 20 to 40 µg/mL (≈ 48.5 to 97 µM); EC50 (HT-29): > 20 µg/mL; EC50 (A-549): > 20 µg/mL; EC50 (RL-95-2): 20 to 30 µg/mL (≈ 48.5 to 72.7 µM); EC50 (Jurkat): 20 to 30 µg/mL (≈ 48.5 to 72.7 µM); EC50 (DU-145): > 20 µg/mL
5 |  |  | 10 to 20 (≈ 21.1 to 42.1 µM) | 5 to 10 (≈ 10.5 to 21.1 µM) | 5 to 10 | 2.5 to 5 (≈ 5.27 to 10.5 µM) | 5 to 10 (≈ 10.5 to 21.1 µM) | 10 to 20 (≈ 21.1 to 42.1 µM) | > 20 | Cc1cc(OCC(=O)O)c(C)c2c1O[C@](C)(CCC[C@H](C)CCC[C@H](C)CCCC(C)C)CC2 [Compound 7, 2,5,8-trimethyl-(2R-(4R,8R,12-trimethyltridecyl)chroman-6-yloxy) acetic acid] | effective | > 20 | EC50 (MDA-MB-231): 5 to 10 µg/mL (≈ 10.5 to 21.1 µM); EC50 (RL-95-2): 5 to 10 µg/mL (≈ 10.5 to 21.1 µM); EC50 (ME-180): 5 to 10 µg/mL (≈ 10.5 to 21.1 µM); EC50 (HMEC): > 20 µg/mL
6 | 3.82 | 4.00 |  |  |  |  |  |  |  | Cc1cc(O)cc2c1O[C@](C)(CCC[C@H](C)CCC[C@H](C)CCCC(C)C)CC2 [δ-tocopherol, reference compound] |  |  | 

Row | Structure (SMILES) | pEC50 [1] | pEC50 (MDA-MB-435) | EC50 (MCF-7) [µg/mL] | EC50 (PC-3) [µg/mL] | EC50 (MDA-MB-435) [µg/mL] | EC50 (LnCaP) [µg/mL] | EC50 (HL-60) [µg/mL] | EC50 (C-170) [µg/mL] | EC50 (T47D) [µg/mL] | growth inhibitory (apoptotic inducing) properties specific for human cancer cells [6] | EC50 (MCF-10A) [µg/mL] | also measured
7 | CC(C)=CCC/C(C)=C/CC/C(C)=C/CC[C@]1(C)CCc2cc(O)c(C)c(C)c2O1 [γ-tocotrienol, reference compound] | 5.00 | 5.00 |  |  |  |  |  |  |  |  |  | 
